Results on three compounds are retold here after publication PMC10451034, “Highly Efficient Photosensitizers with Molecular Vibrational Torsion for Cancer Photodynamic Therapy” (ACS Central Science, 2023).

For series [1], the system named is HepG2 cells. Kind of series: Intracellular ROS detection with DCFH-DA. In kind it is cell-based, human. As to conditions: after 660 nm light irradiation. As for the experimental part: In order to explore the mechanism of cellular structure destruction caused by QTCy7-R, intracellular ROS generation was investigated by DCFH-DA reagent. […] Ulteriorly, cell destruction caused by ROS generation was assessed by Calcein-AM/propidium iodide (PI)-mediated fluorescence imaging (Figures 9c and S21). […]
medium (DMEM, Invitrogen) with 10 % fetal bovine serum (Invitrogen) and 1% penicillinstreptomycin. All cells were treated at 37 °C with the humidified atmosphere containing 5% CO2 and 95% air. Before conducting cell imaging experiments, all types of cells were maintained on 35 mm glass-bottom cell dishes for 24 h.
(§1) Confocal fluorescence imaging
After culturing the cells in 35 mm glass-bottom cell dishes for 24 h, the DMEM medium was replaced with saline, then QTCy7-R was added (3 μM). The confocal fluorescence imaging was carried out and images were recorded. (λex = 640 nm, λem = 680-780 nm). […] After fluorescence imaging, colocalization coefficient was analyzed and recorded. […]
(§2) fluorescence signal (JC-1 monomer). […]
(§3) 2,7-dichlorofluorescein diacetate (DCFH-DA) Detection Kit was chosen to validate the intracellular ROS generation. […] Then the cells were exposed under NIR irradiation, after which the confocal fluorescence imaging was performed . […]

For series [2], the system named is HepG2 cells. Kind of series: Mitochondrial membrane potential detection by JC-1 staining. The class given is cell-based, human. As to conditions: 660 nm irradiation (6 J/cm^2). Here is the method:
Next, in order to verify the disruption effect on cell structural integrity of the ^1O2 generation by QTCy7-R under irradiation, JC-1 staining imaging was conducted to monitor the mitochondria membrane potential. […] On the other hand, cell membrane damage caused by the photooxidation of QTCy7-Ac and QTCy7-CHO could be confirmed by a visualized observation. […] Furthermore, the lactate dehydrogenase (LDH) content in cell culture medium was measured to characterize the extent of cell membrane damage.[49] […]
medium (DMEM, Invitrogen) with 10 % fetal bovine serum (Invitrogen) and 1% penicillinstreptomycin. All cells were treated at 37 °C with the humidified atmosphere containing 5% CO2 and 95% air. […]
as §1
After culturing the cells in 35 mm glass-bottom cell dishes for 24 h, the DMEM medium was replaced with saline, then QTCy7-R was added (3 μM). The confocal fluorescence imaging was carried out and images were recorded. […] After fluorescence imaging, colocalization coefficient was analyzed and recorded. […]
as §2, §3

The nature of series [3]: Singlet oxygen yield in PBS with singlet oxygen sensor green (SOSG). In kind it is physicochemical. As to conditions: 660 nm irradiation. As for the experimental part: In order to further investigate the PDT ability of QTCy7-R on cancer cells, the UV–vis absorption and emission spectra and ^1O2 production capacity of QTCy7-R were tested in phosphate-buffered solution (PBS) to better mimic the cellular environment. […] Meanwhile, the fluorescence quenching of QTCy7-Ph and QTCy7-CHO also confirmed their aggregation in aqueous solution compared to the intense fluorescence emission of QTCy7-Ac. Furthermore, singlet oxygen sensor green (SOSG) was selected to investigate the ^1O2 quantum yield in PBS.
QTCy7-Ph, (e) QTCy7-Ac, (f) QTCy7-CHO, (g) TCy7 and (h) MB under 660 nm irradiation (4 mW/cm2) in PBS. (i) The relative singlet oxygen yield of different compounds in PBS.
Figure S19. (a) The cellular uptake of QTCy7-R in HepG2 cells (QTCy7-Me/QTCy7-Ph: λex = 640 […]
μm). (b) The fluorescence intensity of QTCy7-R in cell at different time. (c) The LDH release rate of cells under different treatment conditions.
Figure S20. The enlarged images of (a) QTCy7-Ac and (b) QTCy7-CHO caused cell membrane destruction at 0 min and 4 min. Yellow arrows indicate the formation of distinct bubble-like structures on cell membrane. (λex = 640 nm, λem = 650-750 nm, scale bars: 20 μm). […]

Regarding `CCN1/C(=C/C=C2\C=C(c3ccccc3)C=C(/C=C/c3sc4ccccc4[n+]3CC)C2=O)Sc2ccccc21` [QTCy7-Ph], in the series on HepG2 cells [1], the “intracellular ROS generation (DCFH-DA fluorescence)” value was “stronger fluorescence signal”. Also, the “mitochondrial membrane potential change” value with HepG2 cells [2] is reported as “severe mitochondrial depolarization”. Turning to `CCN1/C(=C/C=C2\C=C(C)C=C(/C=C/c3sc4ccccc4[n+]3CC)C2=O)Sc2ccccc21` [QTCy7-Me], in the series on HepG2 cells [2], the “mitochondrial membrane potential change” value was “severe mitochondrial depolarization”.

For the compound `CCOC(=O)C1=C/C(=C\C=C2/Sc3ccccc3N2CC)C(=O)C(/C=C/c2sc3ccccc3[n+]2CC)=C1` [QTCy7-Ac], in the series with HepG2 cells [1], the “intracellular ROS generation (DCFH-DA fluorescence)” value is reported as “stronger fluorescence signal”. In addition, in series [3], the “1O2 quantum yield relative to MB” value was 5.8 times.
